# Measurements published in ChEMBL document CHEMBL1145819 (J Med Chem, 2003).
# “And” between values parts separate entries of the source, which are not always exact repeats. Identical values can stand only once.
# What was measured:
# [1] = biological target: T1, 5-hydroxytryptamine receptor 7 (Homo sapiens, UniProt P34969); test: Binding affinity towards human 5-hydroxytryptamine 7 receptor
# [2] = biological target: T2, 5-hydroxytryptamine receptor 6 (Homo sapiens, UniProt P50406)
# [3] = biological target: 5-hydroxytryptamine receptor 7 (Rattus norvegicus, UniProt P32305); test: Binding affinity towards rat 5-hydroxytryptamine 7 receptor
# 5-hydroxytryptamine receptor 7 (Rattus norvegicus, UniProt P32305), sequence (P32305 whole entry): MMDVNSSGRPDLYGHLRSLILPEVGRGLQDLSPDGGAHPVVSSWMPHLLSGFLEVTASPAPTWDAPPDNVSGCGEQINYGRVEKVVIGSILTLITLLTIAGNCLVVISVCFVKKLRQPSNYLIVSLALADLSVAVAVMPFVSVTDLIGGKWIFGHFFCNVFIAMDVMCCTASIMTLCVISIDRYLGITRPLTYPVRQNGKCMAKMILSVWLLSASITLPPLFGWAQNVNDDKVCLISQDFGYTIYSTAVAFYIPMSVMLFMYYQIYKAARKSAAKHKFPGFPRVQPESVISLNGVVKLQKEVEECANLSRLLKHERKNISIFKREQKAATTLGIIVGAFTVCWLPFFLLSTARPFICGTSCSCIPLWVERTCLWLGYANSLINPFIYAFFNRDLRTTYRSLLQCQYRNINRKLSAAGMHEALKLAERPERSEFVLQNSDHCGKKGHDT
# [4] = biological target: T2, 5-hydroxytryptamine receptor 6; test: Binding affinity towards human 5-hydroxytryptamine 6 receptor was evaluated using [3H]-LSD as radioligand
# [5] = biological target: T3, 5-hydroxytryptamine receptor 5A (Homo sapiens, UniProt P47898); test: Binding affinity towards human 5-hydroxytryptamine 5A receptor was evaluated using [3H]-5-CT as radioligand
# T3 sequence (P47898 whole entry): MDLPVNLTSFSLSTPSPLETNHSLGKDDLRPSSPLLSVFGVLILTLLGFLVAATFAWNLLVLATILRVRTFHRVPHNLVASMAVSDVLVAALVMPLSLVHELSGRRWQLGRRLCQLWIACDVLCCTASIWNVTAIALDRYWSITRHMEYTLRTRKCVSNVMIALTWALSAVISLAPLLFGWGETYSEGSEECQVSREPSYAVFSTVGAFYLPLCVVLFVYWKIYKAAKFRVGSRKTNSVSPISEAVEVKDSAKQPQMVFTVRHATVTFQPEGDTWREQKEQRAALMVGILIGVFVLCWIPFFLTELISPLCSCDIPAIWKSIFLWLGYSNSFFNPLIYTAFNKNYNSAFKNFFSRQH
# [6] = biological target: T3, 5-hydroxytryptamine receptor 5A; test: Binding affinity towards human 5-hydroxytryptamine 5A receptor
# [7] = biological target: T4, 5-hydroxytryptamine receptor 5A (Mus musculus, UniProt P30966); test: Binding affinity towards murine 5-hydroxytryptamine 5A receptor
# T4 sequence (P30966 whole entry): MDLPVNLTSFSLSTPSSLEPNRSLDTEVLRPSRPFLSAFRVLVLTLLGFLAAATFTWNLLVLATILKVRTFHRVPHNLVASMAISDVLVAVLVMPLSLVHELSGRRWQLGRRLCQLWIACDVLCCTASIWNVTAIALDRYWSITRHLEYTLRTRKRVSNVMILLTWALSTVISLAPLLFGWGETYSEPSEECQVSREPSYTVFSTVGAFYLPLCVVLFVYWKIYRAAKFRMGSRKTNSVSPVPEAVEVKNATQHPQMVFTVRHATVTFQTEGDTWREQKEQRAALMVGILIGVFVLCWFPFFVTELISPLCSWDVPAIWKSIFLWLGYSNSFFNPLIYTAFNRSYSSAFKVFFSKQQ
# [8] = biological target: T5, Alpha-2A adrenergic receptor (Homo sapiens, UniProt P08913); test: Binding affinity towards Alpha-2 adrenergic receptor
# T5 sequence (P08913 whole entry): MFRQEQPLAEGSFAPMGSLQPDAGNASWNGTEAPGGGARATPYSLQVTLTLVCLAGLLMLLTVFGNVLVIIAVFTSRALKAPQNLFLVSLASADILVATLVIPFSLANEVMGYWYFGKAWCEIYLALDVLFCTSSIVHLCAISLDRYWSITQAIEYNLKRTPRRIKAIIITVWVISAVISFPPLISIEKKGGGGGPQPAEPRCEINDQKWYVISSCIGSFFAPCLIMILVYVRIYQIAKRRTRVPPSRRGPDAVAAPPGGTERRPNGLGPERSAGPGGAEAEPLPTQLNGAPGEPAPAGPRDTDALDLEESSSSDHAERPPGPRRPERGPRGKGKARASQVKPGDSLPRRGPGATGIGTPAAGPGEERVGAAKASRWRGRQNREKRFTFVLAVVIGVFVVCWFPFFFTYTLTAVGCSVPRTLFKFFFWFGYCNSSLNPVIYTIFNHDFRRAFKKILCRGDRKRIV
# [9] = biological target: T6, Alpha-1A adrenergic receptor (Homo sapiens, UniProt P35348); test: Binding affinity towards alpha-1-adrenergic receptor
# T6 sequence (P35348 whole entry): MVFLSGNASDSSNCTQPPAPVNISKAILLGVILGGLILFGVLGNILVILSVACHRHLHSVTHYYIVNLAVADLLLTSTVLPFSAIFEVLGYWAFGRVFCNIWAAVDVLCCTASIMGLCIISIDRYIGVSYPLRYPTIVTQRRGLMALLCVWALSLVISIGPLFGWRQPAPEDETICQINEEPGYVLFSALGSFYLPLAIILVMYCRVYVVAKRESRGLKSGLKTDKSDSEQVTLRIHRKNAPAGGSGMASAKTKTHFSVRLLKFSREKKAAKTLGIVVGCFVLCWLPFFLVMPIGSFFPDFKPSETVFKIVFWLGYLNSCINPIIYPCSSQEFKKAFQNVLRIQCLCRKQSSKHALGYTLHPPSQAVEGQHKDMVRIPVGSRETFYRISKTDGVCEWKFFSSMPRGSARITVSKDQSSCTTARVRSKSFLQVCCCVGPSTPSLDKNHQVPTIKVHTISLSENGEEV
# [10] = biological target: 5-hydroxytryptamine receptor 2A (Homo sapiens, UniProt P28223); test: Binding affinity towards 5-hydroxytryptamine 2A receptor
# 5-hydroxytryptamine receptor 2A, sequence (P28223 whole entry): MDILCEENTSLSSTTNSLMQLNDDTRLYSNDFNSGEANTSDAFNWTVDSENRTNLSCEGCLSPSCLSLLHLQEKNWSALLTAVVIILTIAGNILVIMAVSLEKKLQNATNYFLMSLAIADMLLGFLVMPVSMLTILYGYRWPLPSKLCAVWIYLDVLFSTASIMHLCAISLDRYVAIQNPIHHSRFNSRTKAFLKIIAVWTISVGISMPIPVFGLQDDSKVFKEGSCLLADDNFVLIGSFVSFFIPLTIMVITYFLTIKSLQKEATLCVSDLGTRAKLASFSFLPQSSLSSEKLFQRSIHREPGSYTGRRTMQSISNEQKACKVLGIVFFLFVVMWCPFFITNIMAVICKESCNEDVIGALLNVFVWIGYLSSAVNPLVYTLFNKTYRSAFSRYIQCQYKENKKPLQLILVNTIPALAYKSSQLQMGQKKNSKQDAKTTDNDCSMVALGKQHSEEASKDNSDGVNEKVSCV
# [11] = Antagonistic activity of compound in cAMP accumulation was evaluated; assay type: functional
# [12] = biological target: T2, 5-hydroxytryptamine receptor 6; test: Antagonistic activity towards 5-hydroxytryptamine 6 receptor was evaluated in cAMP assay; assay type: functional
# [13] = Antagonistic activity of compound in 5-HT induced cAMP accumulation; assay type: functional
# [14] = biological target: T1, 5-hydroxytryptamine receptor 7
# [15] = biological target: T7, 5-hydroxytryptamine receptor 3A (Homo sapiens, UniProt P46098); test: Binding affinity towards 5-hydroxytryptamine 3 receptor
# T7 sequence (P46098 whole entry): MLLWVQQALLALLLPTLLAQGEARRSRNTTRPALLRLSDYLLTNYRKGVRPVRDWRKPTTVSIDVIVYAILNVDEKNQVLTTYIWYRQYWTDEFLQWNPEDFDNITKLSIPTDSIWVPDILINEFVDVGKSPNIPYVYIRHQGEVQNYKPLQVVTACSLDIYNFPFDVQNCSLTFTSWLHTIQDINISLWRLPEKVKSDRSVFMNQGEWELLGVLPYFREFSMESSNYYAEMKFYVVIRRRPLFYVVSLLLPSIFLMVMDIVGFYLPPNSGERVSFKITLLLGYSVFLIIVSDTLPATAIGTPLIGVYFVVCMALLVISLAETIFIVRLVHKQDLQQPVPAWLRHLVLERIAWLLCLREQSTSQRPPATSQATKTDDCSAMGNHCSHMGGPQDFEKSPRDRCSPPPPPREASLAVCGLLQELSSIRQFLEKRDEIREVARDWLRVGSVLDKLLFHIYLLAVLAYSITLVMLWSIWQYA
# [16] = biological target: T3, 5-hydroxytryptamine receptor 5A; test: Binding affinity towards 5-hydroxytryptamine 5A receptor
# [17] = Antagonistoc activity of compound for 5-CT-mediated adenylate cyclase activity; assay type: functional
# [18] = biological target: T4, 5-hydroxytryptamine receptor 5A; test: Binding affinity towards mouse 5-hydroxytryptamine 5A receptor was evaluated using [3H]LSD as radioligand
# [19] = biological target: Serotonin 2 (5-HT2) receptor (Homo sapiens, UniProt P41595+P28223+P28335); test: Binding affinity towards 5-HT2 receptor; assay type: protein assay
# [20] = biological target: T1, 5-hydroxytryptamine receptor 7; remark: listed apart in the source
# [21] = biological target: T2, 5-hydroxytryptamine receptor 6; test: Antagonistic activity towards 5-hydroxytryptamine 6 receptor; assay type: functional; details: read-out: pA2 (converted)
# [22] = biological target: T2, 5-hydroxytryptamine receptor 6; test: Binding affinity towards human 5-hydroxytryptamine 6 receptor was evaluated using [125I]-2-iodo LSD as radioligand
# [23] = biological target: T4, 5-hydroxytryptamine receptor 5A; test: Binding affinity towards mouse 5-hydroxytryptamine 5A receptor was evaluated using [3H]- LSD as radioligand
# [24] = biological target: T2, 5-hydroxytryptamine receptor 6; test: Binding affinity towards human 5-hydroxytryptamine 6 receptor
# [25] = biological target: T4, 5-hydroxytryptamine receptor 5A; test: Binding affinity towards mouse 5-hydroxytryptamine 5A receptor
# T1 sequence (P34969 whole entry): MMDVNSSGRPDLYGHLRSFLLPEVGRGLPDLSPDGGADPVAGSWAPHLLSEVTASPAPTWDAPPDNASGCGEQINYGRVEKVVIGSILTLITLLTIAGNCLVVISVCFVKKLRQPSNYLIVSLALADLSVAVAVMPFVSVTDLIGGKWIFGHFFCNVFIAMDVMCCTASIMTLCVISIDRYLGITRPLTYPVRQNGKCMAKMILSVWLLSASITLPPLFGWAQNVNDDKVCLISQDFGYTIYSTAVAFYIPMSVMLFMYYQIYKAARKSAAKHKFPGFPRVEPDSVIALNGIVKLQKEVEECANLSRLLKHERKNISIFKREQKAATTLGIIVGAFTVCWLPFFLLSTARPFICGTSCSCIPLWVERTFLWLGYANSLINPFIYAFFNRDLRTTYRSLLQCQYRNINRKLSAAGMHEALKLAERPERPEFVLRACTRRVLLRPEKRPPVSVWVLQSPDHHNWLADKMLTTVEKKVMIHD
# T2 sequence (P50406 whole entry): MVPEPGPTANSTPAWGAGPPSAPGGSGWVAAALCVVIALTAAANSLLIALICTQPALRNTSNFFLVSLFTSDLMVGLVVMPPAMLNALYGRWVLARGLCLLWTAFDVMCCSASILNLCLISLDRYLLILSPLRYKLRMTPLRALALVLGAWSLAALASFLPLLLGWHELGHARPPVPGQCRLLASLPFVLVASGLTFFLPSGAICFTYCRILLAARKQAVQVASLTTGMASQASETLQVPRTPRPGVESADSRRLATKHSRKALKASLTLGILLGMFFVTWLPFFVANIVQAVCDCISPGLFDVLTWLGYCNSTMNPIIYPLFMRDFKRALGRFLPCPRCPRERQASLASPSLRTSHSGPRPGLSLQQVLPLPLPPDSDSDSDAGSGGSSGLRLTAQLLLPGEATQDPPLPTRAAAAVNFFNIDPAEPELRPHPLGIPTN
smiles,measurement,setting,value
CO[C@]1(C)c2cccc3c2-c2c1ccc1c2[C@@H](C3)N(C)CC1,Ki,[1],1.1 nM
OCCN1CCN(CCCN2c3ccccc3Sc3ccc(Cl)cc32)CC1 [PERPHENAZINE],Ki,[1],23 nM
COc1ccc2c(CCN(C)C)c[nH]c2c1,Ki,[2],8000 nM
CN1CCN(C2=Nc3ccccc3Nc3sccc32)CC1,Ki,[3]; read-out: Ki,104 nM
Cc1cccc(S(=O)(=O)N2CCC[C@@H]2CCN2CCC(C)CC2)c1 [SB-258741],Ki,[1],3 nM
O=C(CCCN1CCC2(CC1)C(=O)NCN2c1ccccc1)c1ccc(F)cc1 [SPIPERONE],Ki,[4],1590 nM
same,Ki,[5],63000 nM
same,Ki,[2],1590 nM
Cc1ccc(S(=O)(=O)n2cc3c4c(cccc42)[C@H](O)[C@@H](N)C3)cc1,Ki,[2],7.2 nM
CCCN(CCC)C1CCc2cccc(O)c2C1 (stereo not drawn) [8-OH-DPAT],Ki,[4],> 10000 nM
same,Ki,[3],150 nM
Cc1cccc(C#N)c1-c1cccc2c1-c1cccc3c1[C@@H](C2)N(C)CC3,Ki,[1],20.8 nM and 3.79 nM
COc1cccc2c(CCN(C)C)c[nH]c12,Ki,[2],19600 nM
O=C(c1ccc(F)cc1)C1CCN(CCn2c(=O)[nH]c3ccccc3c2=O)CC1 [KETANSERIN],Ki,[6],20000 nM
same,Ki,[5],20000 nM
Cn1c2c(c3ccccc31)CNCC2,Ki,[7],5300 nM
COc1cccc2[nH]cc(CCN(C)C)c12,Ki,[2],154 nM
CC1CCCN(CCC(C)N(C)S(=O)(=O)c2cccc3ccccc23)C1 (stereo not drawn),Ki,[1],32 nM and 125 nM and 65 nM
Cc1c(N=C2NCCN2)cccc1-c1ccccc1,Ki,[1],16 nM
same,Ki,[8],19 nM
same,Ki,[9],200 nM
CN1CCN(C2=Nc3ccccc3Oc3ccc(Cl)cc32)CC1 [LOXAPINE],Ki,[2],15 nM
COc1cc(CC(C)N)c(OC)cc1I (stereo not drawn),Ki,[6],> 1000 nM
NCCc1c[nH]c2ccc(C(N)=O)cc12,Ki,[4],720 nM
same,Ki,[6],20 nM
same,Ki,[5],20 nM
CN1CCc2cccc3c2[C@H]1Cc1cccc(-c2ccccc2)c1-3,Ki,[1],9.78 nM
CN(C)CCc1cn(S(=O)(=O)c2ccccc2)c2ccccc12,Ki,[2],4.1 nM
CN(C)CC/C=C1/c2ccccc2Sc2ccc(Cl)cc21 [CHLORPROTHIXENE],Ki,[3]; read-out: Ki,5.6 nM
same,Ki,[2],3 nM
CN1CCc2ccc3c4c2[C@H]1Cc1cccc(c1-4)[C@@H]3N,Ki,[10],469 nM
same,Ki,[1],18 nM
same,Ki,[8],92.8 nM
same,Ki,[9],373 nM
COc1ccc(NS(=O)(=O)c2ccc(Br)cc2)cc1N1CCN(C)CC1,pKb,[11],7.8
C[N+](C)(C)CCc1c[nH]c2ccc(O)cc12,Ki,[6],> 10000 nM
COc1ccc2c(c1)c(CCN(C)C)cn2Cc1ccccc1,Ki,[2],6.5 nM
CN(C)Cc1cn(S(=O)(=O)c2ccccc2)c2ccccc12,IC50,[12],800 nM
same,Ki,[2],3.1 nM
CNc1cc(NS(=O)(=O)c2ccc(N)cc2)nc(NC)n1,pA2,[13],6.75
CN1C[C@H](CNC(=O)OCc2ccccc2)C[C@@H]2c3cccc4[nH]cc(c34)C[C@H]21,Ki,[4],400 nM
same,Ki,[3]; read-out: Ki,60 nM
same,Ki,[14],6.4 nM
COc1ccc2[nH]c(C)c(CCN)c2c1,Ki,[15],> 10000 nM
same,Ki,[2],80 nM
Cc1cn(S(=O)(=O)c2ccc(N)cc2)c2ccccc12,IC50,[12],300 nM
same,Kb,[12]; read-out: pA2 (converted),100 nM
same,Ki,[2],12 nM
CNc1cc(NC)cc(NS(=O)(=O)c2ccc(N)cc2)c1,Ki,[2],200 nM
Cl.O=S(=O)(c1ccc2cc[nH]c2c1)N1CCC[C@@H]1CCN1CCC(Oc2ccc(Cl)cc2)CC1,Ki,[16],168 nM
same,pA2,[17],8.1
CN(C)Cc1cn(S(=O)(=O)c2ccc(N)cc2)c2ccccc12,Ki,[2],6.9 nM
Nc1ccc(S(=O)(=O)Nc2cc(Br)cc3[nH]ccc23)cc1,Ki,[2],50 nM
COc1ccc(NS(=O)(=O)c2sc3ccc(Cl)cc3c2C)cc1N1CCN(C)CC1,pKb,[11],8.5
CCc1c(C)[nH]c2c1C(=O)C(CN1CCOCC1)CC2 (stereo not drawn) [MOLINDONE],Ki,[1],265 nM
COc1ccc2c(c1)c(CCN(C)C)cn2S(=O)(=O)c1ccc(N)cc1,Ki,[2],2 nM
CNc1cc(Br)cc(NS(=O)(=O)c2ccc(N)cc2)c1,Ki,[2],20 nM
c1ccc2nc(N3CCNCC3)ccc2c1 [QUIPAZINE],Ki,[7],> 10000 nM
same,Ki,[18],> 10000 nM
CNC(=O)Cn1c2c(c3ccccc31)CCN(CCCCC13CCCc4cccc(c41)NC3=O)C2 (stereo not drawn),Ki,[19],> 1000 nM
same,Ki,[1],4 nM
COc1ccc(NS(=O)(=O)c2sc3ccc(Cl)cc3c2C)cc1N1CCN2CCC[C@H]2C1,pKb,[11],7.7
CC1CCN(CC[C@H]2CCCN2S(=O)(=O)c2cccc(O)c2)CC1,pKb,[20],8.3
CN1CCN(C2=Nc3cc(Cl)ccc3Nc3ccccc32)CC1 [CLOZAPINE],Ki,[5],1000 nM
COc1ccc2c(c1)c(CCN(C)C)cn2S(=O)(=O)c1ccccc1,Ki,[2],2.1 nM
same,Kb,[21],1.32 nM
COc1ccc2c(c1)c1c(n2S(=O)(=O)c2ccccc2)CCCC1CN(C)C (stereo not drawn),Ki,[2],1.5 nM
O=C1Nc2cccc3c2C1(CCCN1CCN(c2ccccc2)CC1)CCC3 (stereo not drawn),Ki,[19],16 nM
CNc1cc(NS(=O)(=O)c2ccc(N)cc2)nc(N)n1,Ki,[2],1000 nM
CNS(=O)(=O)c1ccc2[nH]cc(CCN(C)C)c2c1,Ki,[4],2600 nM
same,Ki,[6],5000 nM
same,Ki,[5],5000 nM
same,Ki,[14],950 nM
Nc1ccc(S(=O)(=O)Nc2cc(N)nc(Br)c2)cc1,Ki,[2],55 nM
CN1C[C@@H](NS(=O)(=O)N(C)C)C[C@@H]2c3cccc4[nH]cc(c34)C[C@H]21 [DISULERGINE],Ki,[1],18 nM
same,Ki,[3]; read-out: Ki,21 nM
O=C1Nc2cccc3c2C1(CCCCN1CC=C(c2ccccc2)CC1)CCC3 (stereo not drawn),Ki,[19],98 nM
Clc1cccc(N2CCNCC2)c1 [CHLOROPHENYLPIPERAZINE],Ki,[7],8700 nM
same,Ki,[22],2300 nM
same,Ki,[18],8700 nM
c1ccc2c(N3CCNCC3)cccc2c1,Ki,[23],40 nM
COc1ccc2c(c1)c(CCN(C)C)cn2-c1ccccc1,Ki,[2],33 nM
CO[C@@]1(C)c2cccc3c2-c2c1ccc1c2[C@@H](C3)N(C)CC1,Ki,[1],1.1 nM
CO[C@H]1c2cccc3c2c(cn3S(=O)(=O)c2ccc(C)cc2)C[C@@H]1N,Ki,[2],130 nM
O=S(=O)(c1cccc2ccccc12)n1ccc2ccc(N3CCN4CCCC4C3)cc21 (stereo not drawn),Ki,[2],0.7 nM
Cc1[nH]c2ccc(O)cc2c1CCN,Ki,[22],400 nM
same,Ki,[6],> 10000 nM
same,Ki,[18],> 10000 nM
CNc1cc(NS(=O)(=O)c2ccc(N)cc2)cc(NC)n1,pA2,[13],7.1
same,Ki,[24],12 nM
COc1cc(N)c(Cl)cc1C(=O)NC1CN2CCC1CC2 (stereo not drawn) [ZACOPRIDE],Ki,[6],16000 nM
C1CCN2CCNCC2C1 (stereo not drawn),Ki,[2],5 nM
CN(C)CCc1cn(S(=O)(=O)c2ccc(N)cc2)c2ccccc12,Ki,[2],0.8 nM
c1ccc2c3c([nH]c2c1)CNCC3 [TRYPTOLINE],Ki,[25],2470 nM
same,Ki,[2],> 5000 nM
Oc1ccccc1N1CCNCC1,Ki,[7],215 nM
O=c1[nH]c2ccccc2n1C1CCN(CCCC(c2ccc(F)cc2)c2ccc(F)cc2)CC1 [PIMOZIDE],Ki,[2],71 nM
CN1CCc2ccc3c4c2[C@H]1Cc1cccc(c1-4)[C@H]3N,Ki,[1],13.4 nM
